In PubChem BioAssay AID504731 (National Center for Advancing Translational Sciences (NCATS), 2011):

Tested on: mouse liver microsomes, T1/2, LC-MS/MS
Test: Allosteric/Competitive Inhibitors of Caspase 1: Metabolic Stability Profiling
Settings: at 1 µM; hits give high values
Description: The caspases (Cysteine Aspartyl Protease) comprise a related family of 14 dimeric proteases that are critical mediators of apoptosis (programmed cell death) and inflammation. The caspases represent an important class of drug targets for stroke, ischemia, cancer and inflammatory diseases. The goal of this project was to identify compounds that act as selective inhibitors caspase 1. To identify both allosteric and competitive inhibitors of caspase 1, the enzyme was screened using a pro-fluorescent substrate in a qHTS format. […] Mouse liver microsomes are created through broken up endoplasmic reticulum from mouse liver. These liver microsomes contain many drug metabolizing enzymes, such as Cytochome P-450s and flavin-containing monooxygenases. Because metabolism is major way of drug clearance, this is an important result. H Chemical Genomics Center [NCGC] NIH Molecular Libraries Probe Production Centers Network [MLPCN] MLSCN Grant: 1 X01 MH078950-01 PI Name: Dr. James Wells
1uM of compound in incubated in mouse liver microsome; the reference compound is ketanserin. Compounds are incubated at 37 degrees C for different time periods: 0, 5, 15, 30, 45, and 60 minutes. Samples are analyzed with LC-MS/MS.

half-life: 206 min
Compound: CC(C)(C)[C@H](NC(=O)c1ccc(N)c(Cl)c1)C(=O)N1CCC[C@H]1C(=O)N[C@H](C#N)CC(=O)O
